From patent US4343816A, “Pharmaceutical composition comprising an acyl-carnitine, for treating peripheral vascular diseases” (priority 1979, dated 1982)

Test: in vivo
Conditions: mouse, iv
Source text: As is known, carnitine contains an asymetrical carbon atom and consequently exists in two stereoisomer forms.

| Structure (SMILES) | LD50 |
| --- | --- |
| CC(=O)CC(=O)OC(CC(=O)[O-])C[N+](C)(C)C (stereo not drawn) [acetoacetyl-carnitine] | 728 mg/kg |
| CC(=O)OC(CC(=O)[O-])C[N+](C)(C)C (stereo not drawn) [acetyl-carnitine] | 770 mg/kg |
| CC(O)CC(=O)OC(CC(=O)[O-])C[N+](C)(C)C (stereo not drawn) [hydroxybutyryl-carnitine] | 745 mg/kg |
| CC(C)CC(=O)OC(CC(=O)[O-])C[N+](C)(C)C (stereo not drawn) [isovaleryl-carnitine] | 743 mg/kg |
| C[N+](C)(C)CC(CC(=O)[O-])OC(=O)CCC(=O)O (stereo not drawn) [succinyl-carnitine] | 780 mg/kg |

Test: Tolerance and toxicity (general statement)
Conditions: racemic mixture or separated optically active forms, whatever the route of administration

| Structure (SMILES) | tolerance |
| --- | --- |
| CC(=O)OC(CC(=O)[O-])C[N+](C)(C)C (stereo not drawn) [acetyl-carnitine] | excellent |
